Legend:
[1] = pharmacokinetics in mouse after oral and intramuscular administration; format: in vivo
Description: The kinetics of the four products to be considered, is studied in mouse after oral and intramuscular administration, of respectively 7 and 3.5 mg/kg respectively of ESE001, ESE002, ESE003, ESE004.

[2] = antagonist effect on the stimulating effect of scopolamine (motor activity), ESE series; format: in vivo; details: oral administration of 2.5 mg; scopolamine 1 mg/kg
Description: This is countered by the oral administration of 2.5 mg of ESE001, ESE002, ESE003, ESE004.

acetylcholinesterase = biological target: T1, acetylcholinesterase (Mus musculus, UniProt P21836); test: inhibition of acetylcholinesterase activity on the mouse brain after single doses; format: in vivo; details: for suppression of the enzymatic activity: even at higher doses; for duration of the inhibitory activity compared with physostigmine: mouse brain acetylcholinesterase; for inhibition of the acetylcholinesterase activity, on the mouse brain: single doses in the range 0.4 - 7 mg/kg
T1 construct: from tissue; host or cells: mouse brain
T1 sequence (P21836 32-614): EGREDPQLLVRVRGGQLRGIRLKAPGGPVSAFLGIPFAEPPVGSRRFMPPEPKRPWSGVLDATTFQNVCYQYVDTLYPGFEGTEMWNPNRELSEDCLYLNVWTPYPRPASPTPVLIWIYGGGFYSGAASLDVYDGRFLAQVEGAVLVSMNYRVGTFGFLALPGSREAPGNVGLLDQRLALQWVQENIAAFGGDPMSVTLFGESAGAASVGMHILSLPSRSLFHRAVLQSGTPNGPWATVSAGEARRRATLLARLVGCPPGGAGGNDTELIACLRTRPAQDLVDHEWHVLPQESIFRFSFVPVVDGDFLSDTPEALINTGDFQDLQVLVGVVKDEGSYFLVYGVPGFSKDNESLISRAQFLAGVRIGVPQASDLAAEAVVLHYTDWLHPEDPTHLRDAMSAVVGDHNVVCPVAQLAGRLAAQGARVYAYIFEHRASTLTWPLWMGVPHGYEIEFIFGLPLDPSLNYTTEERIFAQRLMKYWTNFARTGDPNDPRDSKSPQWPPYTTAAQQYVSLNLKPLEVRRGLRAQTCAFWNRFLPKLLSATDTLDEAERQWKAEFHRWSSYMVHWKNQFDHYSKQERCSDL

[3] = toxicity, LD50 i.p. (Table 1); format: in vivo; details: 50 % of the animals died within 24 hours from the administration; for LD50 at 24 h: in vivo, ip
Description: LD50 is determined for the dose (mg/kg) at which 50 % of the animals died within 24 hours from the administration.

mouse [4] = test: analgesic activity, 2-phenylbenzoquinone test; format: in vivo
Description: Expte. Biol. Med. 95, 729, (1957).]
The procedure followed represents a modification of the test developed by Hoffner [Dtsch. Med. Wschr. 55, 731 (1929)].

mouse [5] = test: spontaneous motility (Dews' method modified according to Carminati); format: in vivo, mouse (SWISS strain); details: for reduction of spontaneous motility: oral, starting from minimal doses of 3.5-5 mg/kg, on average; for minimal doses causing a marked reduction of spontaneous motility: orally administered
Description: The Dews' method was utilized, as modified according to Carminati (Arch. Int. Pharmacodyn. et Thér. 181, 68,1969).

[6] = acute toxicity, oral LD50 in the mouse; details: mouse, in vivo, po
Description: (§1) The mouse was used (Swiss strain having the average weight of the male mice being 26 g and 22 g that of the female mice: 5+5 animals per dose, observation period: 7days) The oral LD50 (suspension in 2% carboxymethylcellulose) were reported hereinbelow: Tab.2

[7] = tested on: acetylcholinesterase activity (AchE); test: in vivo anticholinesterase activity (blood and brain, Ellman colorimetric method); set-up: species or system Wistar male rats; details: rats, oral, 1.5 to 4 mg/kg; sacrificed after 20, 60 and 120 minutes
Description: The derivatives, under question and physostigmine suspended in 2% carboxymethylcellulose, were orally administered to groups of Wistar male rats (average weight about 250 g).
On the base of the obtained results in preliminary trials, the doses utilized for the comparison were comprised beween 0.2 and 0.4 mg/kg for physostigmine and between 1.5 and 4 mg/kg for the eseroline derivatives under question.
The groups of treated rats were sacrificed after 20, 60, and 120 minutes and the blood and the brain of each animal were immediately cooled to 0°C and maintained at this temperature during the successive treatments.
The acetylcholinesterase activity (AchE) was determined by using the Ellman et al's quick colorimetric method (Biochem. Pharmacol., 7, 88, 1961) and it was expressed as enzymatic inhibition percentage.

mouse [8] = test: acute toxicity, oral LD50 in the mouse; details: oral, suspension in 2% carboxymethylcellulose, observation period 7 days
Description: as §1

[9] = preliminary pharmacokinetics, plasma level by HPLC; format: in vivo, Wistar rats; details: rats, 6.2 mg/kg/os
Description: The presence of the substance in the plasma was evidenced by HPLC. With this method, the identification threshold was 0.15 mcg per ml of plasma.

CN1CC[C@@]2(C)c3cc(OC(=O)NN4CCOCC4)ccc3N(C)[C@@H]12 [ESE003, (3-aS-cis)-1,2,3,3a,8,8a-hexahydro 1,3a,8-trimethylpyrrole [2,3-B]-indole 5-ol-1-morpholinyl-carbamate ester]
liver kinetics / excretion [1]: pass through into the urine unchanged | countering of the stimulating effect of scopolamine [2]: countered | suppression of the enzymatic activity (acetylcholinesterase): do not suppress the enzymatic activity | duration of the inhibitory activity compared with physostigmine (acetylcholinesterase): last longer than that of physostigmine | inhibition of the acetylcholinesterase activity, on the mouse brain (acetylcholinesterase): dose-dependence, reversible inhibition | LD50 ([3]; 1440 min): <80 mg/kg | LD50 at 24 h [3]: > 40 mg/kg | analgesic activity (mouse [4]): show also analgesic activity

CN1CC[C@@]2(C)c3cc(OC(=O)NN4CCNCC4)ccc3N(C)[C@@H]12 [ESE002, (3-aS-cis)-1,2,3,3a,8,8a-hexahydro 1,3a,8-trimethylpyrrole [2,3-B]-indole 5-ol-1-piperazinyl-carbamate ester]
liver kinetics / excretion [1]: pass through into the urine unchanged | countering of the stimulating effect of scopolamine [2]: countered | suppression of the enzymatic activity (acetylcholinesterase): do not suppress the enzymatic activity | duration of the inhibitory activity compared with physostigmine (acetylcholinesterase): last longer than that of physostigmine | inhibition of the acetylcholinesterase activity, on the mouse brain (acetylcholinesterase): dose-dependence, reversible inhibition | LD50 ([3]; 1440 min): <80 mg/kg | LD50 at 24 h [3]: > 40 mg/kg | analgesic activity (mouse [4]): show also analgesic activity

CN1CC[C@@]2(C)c3cc(OC(=O)NN4CCCNCC4)ccc3N(C)[C@@H]12 [ESE006, (3-aS-cis)-1,2,3,3a,8,8a-hexahydro 1,3a,8-trimethylpyrrole [2,3-B]-indole 5-ol-homopiperazinylcarbamate ester]
LD50 ([3]; 1440 min): <80 mg/kg | LD50 at 24 h [3]: > 40 mg/kg

CC1CCCC(C)N1NC(=O)Oc1ccc2c(c1)[C@]1(C)CCN(C)[C@@H]1N2C (stereo partly drawn) [ESE007, (3-aS-cis)-1,2,3,3a,8,8a-hexahydro 1,3a,8-trimethylpyrrole [2,3-B]-indole 5-ol-1-(2,6-dimethyl) piperidine carbamate ester]
LD50 ([3]; 1440 min): < 80 mg/kg | LD50 at 24 h [3]: > 40 mg/kg

CN1CC[C@@]2(C)c3cc(OC(=O)Nc4ccc5c(c4)OCO5)ccc3N(C)[C@@H]12 [MGT7, eseroline 1,3 benzodioxol-5 carbamate]
reduction of spontaneous motility (mouse [5]): ~-39% | minimal doses causing a marked reduction of spontaneous motility (mouse [5]): 3.5 to 5 mg/kg | LD50 at 168 h [6]: 332 mg/kg | inhibitory activity of the acetylcholinesterase [7]: evident dose dipendent and reversible inhibitory activity

CCCC1CCCN(NC(=O)Oc2ccc3c(c2)[C@]2(C)CCN(C)[C@@H]2N3C)C1C (stereo partly drawn) [ESE010, (3-aS-cis)-1,2,3,3a,8,8a-hexahydro 1,3a,8-trimethylpyrrole [2,3-B]-indole 5-ol-1-(3-propyl)-2-pipecolinylcarbamate ester]
LD50 ([3]; 1440 min): < 60 mg/kg | LD50 at 24 h [3]: > 30 mg/kg

CN1CC[C@@]2(C)c3cc(OC(=O)N4CCCC4)ccc3N(C)[C@@H]12 (relative stereo) [ESE001, (3-aS-cis)-1,2,3,3a,8,8a-hexahydro 1,3a,8-trimethylpyrrole [2,3-B]-indole 5-ol-1-pyrrolidinyl-carbamate ester]
liver kinetics / excretion [1]: pass through into the urine unchanged | countering of the stimulating effect of scopolamine [2]: countered | suppression of the enzymatic activity (acetylcholinesterase): do not suppress the enzymatic activity | duration of the inhibitory activity compared with physostigmine (acetylcholinesterase): last longer than that of physostigmine | inhibition of the acetylcholinesterase activity, on the mouse brain (acetylcholinesterase): dose-dependence, reversible inhibition | LD50 [3]: 5 mg/kg | analgesic activity (mouse [4]): show also analgesic activity

CN1CCC2(C)c3cc(OC(=O)NC4CCCN(CCO)C4=O)ccc3N(C)C12 (centres unmarked) [MGT3, eseroline N-ethanol-2-piperidone-3 aminocarbamate]
reduction of spontaneous motility (mouse [5]): ~-39% | minimal doses causing a marked reduction of spontaneous motility (mouse [5]): 3.5 to 5 mg/kg | LD50 in the mouse (mouse [8]): 383,7 ± 41,2 mg/kg | inhibitory activity of the acetylcholinesterase [7]: evident dose dipendent and reversible inhibitory activity

CN1CC[C@@]2(C)c3cc(OC(=O)NN4CCSCC4)ccc3N(C)[C@@H]12 [ESE004, (3-aS-cis)-1,2,3,3a,8,8a-hexahydro 1,3a,8-trimethylpyrrole [2,3-B]-indole 5-ol-1-thio-morpholinyl-carbamate ester]
liver kinetics / excretion [1]: pass through into the urine unchanged | countering of the stimulating effect of scopolamine [2]: countered | suppression of the enzymatic activity (acetylcholinesterase): do not suppress the enzymatic activity | duration of the inhibitory activity compared with physostigmine (acetylcholinesterase): last longer than that of physostigmine | inhibition of the acetylcholinesterase activity, on the mouse brain (acetylcholinesterase): dose-dependence, reversible inhibition | LD50 ([3]; 1440 min): <80 mg/kg | LD50 at 24 h [3]: > 40 mg/kg | analgesic activity (mouse [4]): show also analgesic activity

CCCC1CCN(NC(=O)Oc2ccc3c(c2)[C@]2(C)CCN(C)[C@@H]2N3C)C1=O (stereo partly drawn) [ESE011, (3-aS-cis)-1,2,3,3a,8,8a-hexahydro 1,3a,8-trimethylpyrrole [2,3-B]-indole 5-ol-1-(3-propyl)-2 pyrrolidone-carbamate ester]
LD50 ([3]; 1440 min): < 60 mg/kg | LD50 at 24 h [3]: > 30 mg/kg

CNC(=O)Oc1ccc2c(c1)[C@]1(C)CCN(C)[C@@H]1N2C [Physostigmine, reference compound]
LD50 at 24 h [3]: 0.64 mg/kg | LD50 in the mouse (mouse [8]): 4,39 ± 1,14 mg/kg

CN1CC[C@@]2(C)c3cc(OC(=O)N[C@H]4CCCCNC4=O)ccc3N(C)[C@@H]12 [MGT1, eseroline R-caprolactam carbamate]
reduction of spontaneous motility (mouse [5]): ~-39% | minimal doses causing a marked reduction of spontaneous motility (mouse [5]): 3.5 to 5 mg/kg | LD50 at 168 h [6]: 322 mg/kg | maximum peak in plasma [9]: 36.14 ± 7.12 µg/mL | time of the maximum peak [9]: 90 ' | concentration in plasma ([9]; after 24 hours): 5090 ± 1710 ng/mL | concentration in plasma ([9]; time not given): 17110 ± 3810 ng/mL

CN1CC[C@@]2(C)c3cc(OC(=O)NC4CN5CCC4CC5)ccc3N(C)[C@@H]12 (stereo partly drawn) [ESE012, (3-aS-cis)-1,2,3,3a,8,8a-hexahydro 1,3a,8-trimethylpyrrole [2,3-B]-indole 5-ol-3 quinuclidyl-carbamate ester]
LD50 ([3]; 1440 min): < 60 mg/kg | LD50 at 24 h [3]: > 30 mg/kg

CN1CC[C@@]2(C)c3cc(OC(=O)N[C@H]4C(O)O[C@H](CO)[C@@H](O)[C@@H]4O)ccc3N(C)[C@@H]12 (stereo partly drawn) [MGT4, eseroline N-D-glucosamine carbamate]
reduction of spontaneous motility (mouse [5]): ~-39% | minimal doses causing a marked reduction of spontaneous motility (mouse [5]): 3.5 to 5 mg/kg | LD50 at 168 h [6]: 398 mg/kg

CN1CC[C@@]2(C)c3cc(OC(=O)NN4CCN(CCO)CC4)ccc3N(C)[C@@H]12 [ESE005]
LD50 ([3]; 1440 min): >40 mg/kg | LD50 at 24 h [3]: < 80 mg/kg

CCCC1CN(NC(=O)Oc2ccc3c(c2)[C@]2(C)CCN(C)[C@@H]2N3C)CCO1 (stereo partly drawn) [ESE009, (3-aS-cis)-1,2,3,3a,8,8a-hexahydro 1,3a,8-trimethylpyrrole [2,3-B]-indole 5-ol-4-(3-propyl)-morpholinylcarbamate ester]
LD50 ([3]; 1440 min): < 60 mg/kg | LD50 at 24 h [3]: > 30 mg/kg
